Where “and” joins values, the source holds several entries; their conditions need not be identical. Identical values can stand only once.
System: Long Evans rats
Test: Behavioral satiety sequence (BSS)
Format: in vivo, Long Evans rat
Source text: The Behavioural Satiety Sequence (BSS) is a technique used to evaluate physiological satiety. It is based on the expression of a sequence of behaviors including eating, grooming, locomotor activity, followed by resting, which are typically observed in rodents post-ingestion (Halford et al, 1998, Pharmacology Biochemistry and Behaviour. 61(2): 159-168). The BSS is a widely used model for determining the effects of novel pharmaceuticals on food intake and measures of satiety in rodents (Oliveira et al, 2011, Revista de Nutrição. 24(4) 619-628), and to discriminate the cause of reduced food intake following pharmacological manipulation. For example, treatments that may reduce food intake by non-specific mechanisms, such as immobility, malaise, and taste adulteration, will disrupt this sequence (Halford et al, 1998, Pharmacology Biochemistry and Behaviour. 61(2): 159-168).
Specifically, 12 male Long-Evans rats were food-deprived for 22 h with a 2 h feeding period each day. Rats were trained to consume daily food during the 2 h period over 25 days. The testing phase was initiated once the rats consistently consumed 16-18 g of food per day with ≤10% variance in amount of feed consumed. Feeding took place in designated individual boxes in a quiet room separate from the housing room. Continuous remote monitoring via video camera during feeding was used to assess the BSS. Food consumption was measured by weighing the total available food before and after the 2 h feeding window, correcting for spillage. Lorcaserin (1 mg/kg) was included as a reference control (Higgins et al, 2011, Neuropsychopharmacology. 37(5): 1177-1191). Subjects were tested using a repeated-measures, Latin square design with 2-3 days wash-out between treatment cycles.
On scheduled test days, animals were monitored remotely via video camera during the feeding access period. The occurrence of four mutually exclusive behaviors (eating/drinking, grooming, active, rest) were individually scored. Over the 2 h feeding period, behaviors were assessed every 30 seconds. Scores were compiled into 23 5 min timebins (timebin 24 was removed due to early removal of animals) and the frequency of each behavior within each timebin was calculated to determine a temporal frequency of each measure (Rodgers et al, 2010, Pharmacology Biochemistry and Behaviour. 97: 3-14). Percentage time was plotted for each behavioral sequence in each timebin to compare between treatment groups (Higgins et al, 2011, Neuropsychopharmacology. 37(5): 1177-1191).

[1] = Compound I-19 3 mg/kg i.p., raw score per animal
[2] = Compound I-19 3 mg/kg, AVG of 12 animals
[3] = Compound I-19 3 mg/kg, raw score of individual animals LT-1 to LT-12
[4] = Compound I-19 i.p., first dose group after lorcaserin (dose not given), raw score per animal

## Clc1ccc(C2(OCC3OCCO3)c3ccccc3C3=NCCN32)cc1 (stereo not shown) [Compound I-19]
[1]
  BSS scoring R (resting), Time Bin 4 (15-20 TOTAL): 1 (2×) and 0 (10×)
  BSS scoring R (resting), Time Bin 5 (20-25 TOTAL): 0 (10×) and 1 (2×)
  BSS scoring R (resting), Time Bin 6 (25-30 TOTAL): 0 (9×) and 1 and 2 (2×)
[2]
  BSS scoring A (active), Time Bin 13 (60-65 TOTAL), AVG: 0.18
  BSS scoring A (active), Time Bin 14 (65-70 TOTAL), AVG: 0.15
  BSS scoring A (active), Time Bin 15 (70-75 TOTAL), AVG: 0.28
  BSS scoring A (active), Time Bin 16 (75-80 TOTAL), AVG: 0.03
  BSS scoring A (active), Time Bin 17 (80-85 TOTAL), AVG: 0.18
  BSS scoring A (active), Time Bin 18 (85-90 TOTAL), AVG: 0.12
  BSS scoring E (eating/drinking), Time Bin 13 (60-65 TOTAL), AVG: 0.72
  BSS scoring E (eating/drinking), Time Bin 14 (65-70 TOTAL), AVG: 0.63
  BSS scoring E (eating/drinking), Time Bin 15 (70-75 TOTAL), AVG: 0.53
  BSS scoring E (eating/drinking), Time Bin 16 (75-80 TOTAL), AVG: 0.71
  BSS scoring E (eating/drinking), Time Bin 17 (80-85 TOTAL), AVG: 0.63
  BSS scoring E (eating/drinking), Time Bin 18 (85-90 TOTAL), AVG: 0.65
  BSS scoring G (grooming), Time Bin 13 (60-65 TOTAL), AVG: 0.02
  BSS scoring G (grooming), Time Bin 14 (65-70 TOTAL), AVG: 0.02
  BSS scoring G (grooming), Time Bin 15 (70-75 TOTAL), AVG: 0.06
  BSS scoring G (grooming), Time Bin 16 (75-80 TOTAL), AVG: 0.05
  BSS scoring G (grooming), Time Bin 17 (80-85 TOTAL), AVG: 0.03
  BSS scoring G (grooming), Time Bin 18 (85-90 TOTAL), AVG: 0.07
  BSS scoring R (resting), Time Bin 13 (60-65 TOTAL), AVG: 0.09
  BSS scoring R (resting), Time Bin 14 (65-70 TOTAL), AVG: 0.21
  BSS scoring R (resting), Time Bin 15 (70-75 TOTAL), AVG: 0.13
  BSS scoring R (resting), Time Bin 16 (75-80 TOTAL), AVG: 0.22
  BSS scoring R (resting), Time Bin 17 (80-85 TOTAL), AVG: 0.17
  BSS scoring R (resting), Time Bin 18 (85-90 TOTAL), AVG: 0.17
[3]
  BSS scoring A (active), Time Bin 13 (60-65 TOTAL): 3 and 0 (3×) and 2 (4×) and 1 (2×) and 4 (2×)
  BSS scoring A (active), Time Bin 14 (65-70 TOTAL): 8 and 0 (5×) and 1 (5×) and 5
  BSS scoring A (active), Time Bin 15 (70-75 TOTAL): 3 (2×) and 0 (5×) and 5 (3×) and 4 and 9
  BSS scoring A (active), Time Bin 16 (75-80 TOTAL): 0 (10×) and 1 and 2
  BSS scoring A (active), Time Bin 17 (80-85 TOTAL): 0 (6×) and 8 and 2 and 3 and 4 (2×) and 1
  BSS scoring A (active), Time Bin 18 (85-90 TOTAL): 0 (7×) and 2 and 3 (2×) and 1 and 5
  BSS scoring E (eating/drinking), Time Bin 13 (60-65 TOTAL): 6 (3×) and 8 (4×) and 7 and 9 and 10 (2×) and 0
  BSS scoring E (eating/drinking), Time Bin 14 (65-70 TOTAL): 2 (2×) and 8 (2×) and 9 (3×) and 10 and 3 (2×) and 7 and 5
  BSS scoring E (eating/drinking), Time Bin 15 (70-75 TOTAL): 7 (3×) and 9 and 8 and 5 (2×) and 0 (3×) and 6 and 10
  BSS scoring E (eating/drinking), Time Bin 16 (75-80 TOTAL): 10 (4×) and 8 (3×) and 3 and 0 and 2 and 9 and 7
  BSS scoring E (eating/drinking), Time Bin 17 (80-85 TOTAL): 7 and 2 and 8 and 10 (4×) and 0 (2×) and 3 and 6 and 9
  BSS scoring E (eating/drinking), Time Bin 18 (85-90 TOTAL): 10 (4×) and 8 (2×) and 5 (2×) and 0 (2×) and 9 and 3
  BSS scoring G (grooming), Time Bin 13 (60-65 TOTAL): 1 (2×) and 0 (10×)
  BSS scoring G (grooming), Time Bin 14 (65-70 TOTAL): 0 (11×) and 2
  BSS scoring G (grooming), Time Bin 15 (70-75 TOTAL): 0 (8×) and 1 (3×) and 4
  BSS scoring G (grooming), Time Bin 16 (75-80 TOTAL): 0 (8×) and 1 (3×) and 3
  BSS scoring G (grooming), Time Bin 17 (80-85 TOTAL): 0 (10×) and 1 and 2
  BSS scoring G (grooming), Time Bin 18 (85-90 TOTAL): 0 (8×) and 4 and 1 (2×) and 2
  BSS scoring R (resting), Time Bin 13 (60-65 TOTAL): 0 (8×) and 2 (2×) and 1 and 6
  BSS scoring R (resting), Time Bin 14 (65-70 TOTAL): 0 (4×) and 2 (3×) and 1 (2×) and 6 and 7 and 4
  BSS scoring R (resting), Time Bin 15 (70-75 TOTAL): 0 (8×) and 2 and 5 (2×) and 3
  BSS scoring R (resting), Time Bin 16 (75-80 TOTAL): 0 (4×) and 1 (4×) and 3 and 9 and 2 and 8
  BSS scoring R (resting), Time Bin 17 (80-85 TOTAL): 3 (2×) and 0 (7×) and 1 and 8 and 5
  BSS scoring R (resting), Time Bin 18 (85-90 TOTAL): 0 (7×) and 2 (2×) and 6 and 9 and 1
Compound I-19 0.1-3 mg/kg IP, lorcaserin 1 mg/kg SC
  effect on the behavioral satiety sequence (BSS): did not affect the BSS compared to vehicle pretreatment
[4]
  BSS scoring A (active), Time Bin 7 (30-35 TOTAL): 2 and 0
  BSS scoring A (active), Time Bin 8 (35-40 TOTAL): 2 and 0
  BSS scoring A (active), Time Bin 9 (40-45 TOTAL): 1 and 2
  BSS scoring A (active), Time Bin 10 (45-50 TOTAL): 1
  BSS scoring A (active), Time Bin 11 (50-55 TOTAL): 1 and 0
  BSS scoring A (active), Time Bin 12 (55-60 TOTAL): 1 and 2
  BSS scoring E (eating/drinking), Time Bin 7 (30-35 TOTAL): 6 and 9
  BSS scoring E (eating/drinking), Time Bin 8 (35-40 TOTAL): 6 and 9
  BSS scoring E (eating/drinking), Time Bin 9 (40-45 TOTAL): 9 and 6
  BSS scoring E (eating/drinking), Time Bin 10 (45-50 TOTAL): 7
  BSS scoring E (eating/drinking), Time Bin 11 (50-55 TOTAL): 8 and 10
  BSS scoring E (eating/drinking), Time Bin 12 (55-60 TOTAL): 5 and 8
  BSS scoring G (grooming), Time Bin 7 (30-35 TOTAL): 0 and 1
  BSS scoring G (grooming), Time Bin 8 (35-40 TOTAL): 1
  BSS scoring G (grooming), Time Bin 9 (40-45 TOTAL): 0 and 1
  BSS scoring G (grooming), Time Bin 10 (45-50 TOTAL): 1
  BSS scoring G (grooming), Time Bin 11 (50-55 TOTAL): 0
  BSS scoring G (grooming), Time Bin 12 (55-60 TOTAL): 1 and 0
  BSS scoring R (resting), Time Bin 7 (30-35 TOTAL): 2 and 0
  BSS scoring R (resting), Time Bin 8 (35-40 TOTAL): 1 and 0
  BSS scoring R (resting), Time Bin 9 (40-45 TOTAL): 0 and 1
  BSS scoring R (resting), Time Bin 10 (45-50 TOTAL): 1
  BSS scoring R (resting), Time Bin 11 (50-55 TOTAL): 1 and 0
  BSS scoring R (resting), Time Bin 12 (55-60 TOTAL): 3 and 0
